# The source made the active and inactive calls. The calls are words filed in the database; no cut-off is given here.
# Legend:
# [1] = target: T1, Dihydrofolate reductase (Homo sapiens) (UniProt P00374); assay: Inhibition of human DHFR expressed in Escherichia coli BL21 at 100 uM
# T1 sequence (whole entry): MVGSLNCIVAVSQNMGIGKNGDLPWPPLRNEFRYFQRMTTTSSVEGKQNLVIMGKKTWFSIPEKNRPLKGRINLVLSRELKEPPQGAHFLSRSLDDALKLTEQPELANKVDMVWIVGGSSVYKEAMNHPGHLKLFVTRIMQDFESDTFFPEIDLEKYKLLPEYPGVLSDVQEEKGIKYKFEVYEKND
# Thymidylate synthase [2] = target: T2, Thymidylate synthase (Homo sapiens, UniProt P04818); assay: Inhibition of human thymidylate synthase expressed in Escherichia coli BL21 at 100 uM
# Target sequence in this assay (P04818 2-313 limits assumed): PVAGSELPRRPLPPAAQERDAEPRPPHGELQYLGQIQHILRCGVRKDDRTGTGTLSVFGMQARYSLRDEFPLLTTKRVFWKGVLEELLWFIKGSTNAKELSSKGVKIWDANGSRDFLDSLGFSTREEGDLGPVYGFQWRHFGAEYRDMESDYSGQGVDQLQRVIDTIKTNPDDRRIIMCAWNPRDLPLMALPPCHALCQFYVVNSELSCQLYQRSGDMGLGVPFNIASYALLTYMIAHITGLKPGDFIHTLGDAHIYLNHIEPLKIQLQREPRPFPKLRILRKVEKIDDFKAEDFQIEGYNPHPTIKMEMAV
# Thymidylate synthase [3] = target: T2, Thymidylate synthase; assay: Inhibition of human thymidylate synthase expressed in Escherichia coli BL21 at 25 uM
# Target sequence in this assay (P04818 2-313 limits assumed): as above
# 2008 [4] = assay: Cytotoxicity against human cDDP-sensitive 2008 cells after 72 hrs using crystal violet staining by spectrophotometric analysis; assay type: cell-based; conditions: Homo sapiens, 2008, 72 h
# Thymidylate synthase [5] = target: T2, Thymidylate synthase; assay: Inhibition of human thymidylate synthase expressed in Escherichia coli BL21 at 50 uM
# Target sequence in this assay (P04818 2-313 limits assumed): as above
# [6] = Cytotoxicity against human cDDP-resistant C13 cells after 72 hrs using crystal violet staining by spectrophotometric analysis; assay type: cell-based; conditions: C13, 72 h
# Vero = assay: Cytotoxicity against african green monkey Vero cells after 72 hrs using crystal violet staining by spectrophotometric analysis; assay type: cell-based; conditions: Chlorocebus sabaeus
# A2780 [7] = assay: Cytotoxicity against human cDDP-sensitive A2780 cells after 72 hrs using crystal violet staining by spectrophotometric analysis; assay type: cell-based; conditions: A2780, 72 h
# A2780 [8] = assay: Cytotoxicity against human cDDP-resistant A2780 cells after 72 hrs using crystal violet staining by spectrophotometric analysis; assay type: cell-based; conditions: A2780, 72 h
# [9] = Solubility of the compound in dimethyl sulfoxide; assay type: physicochemical
# [10] = Cytotoxicity against human Fibroblast at up to 100 uM after 72 hrs using crystal violet staining by spectrophotometric analysis; assay type: cell-based
# Thymidylate synthase [11] = target: T2, Thymidylate synthase; assay: Inhibition of human thymidylate synthase expressed in Escherichia coli BL21
# Target sequence in this assay (P04818 whole entry): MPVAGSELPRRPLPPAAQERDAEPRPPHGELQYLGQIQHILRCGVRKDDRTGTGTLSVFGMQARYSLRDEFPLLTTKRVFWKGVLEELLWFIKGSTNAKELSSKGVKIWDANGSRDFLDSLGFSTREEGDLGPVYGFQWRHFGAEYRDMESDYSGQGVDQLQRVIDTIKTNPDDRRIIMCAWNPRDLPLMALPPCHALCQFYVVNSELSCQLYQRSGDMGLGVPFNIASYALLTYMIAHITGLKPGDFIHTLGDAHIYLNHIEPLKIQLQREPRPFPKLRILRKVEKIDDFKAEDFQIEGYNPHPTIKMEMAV
# 2008 [12] = assay: Inhibition of DHFR protein expression in human cDDP-sensitive 2008 cells after 72 hrs by Western blotting; assay type: functional, cell-based
# 2008 [13] = assay: Induction of ROS accumulation in human cDDP-sensitive 2008 cells at IC50 concentration after 72 hrs […]; assay type: cell-based; conditions: human, 2008, 72 h
# 2008 [14] = assay: Inhibition of thymidylate synthase protein expression in human cDDP-sensitive 2008 cells after 72 hrs by Western blotting; assay type: functional, cell-based
# C13 = assay: Inhibition of DHFR protein expression in human cDDP-resistant C13 cells after 72 hrs by Western blotting; assay type: functional, cell-based
# Thymidylate synthase [15] = target: T2, Thymidylate synthase; assay: Inhibition of thymidylate synthase catalytic activity in human cDDP-sensitive 2008 cells after 72 hrs by Western blotting (reference value: 38.8 +/- 3.9%); assay type: cell-based; conditions: concentration not given here
# Target sequence in this assay (P04818 2-313 limits assumed): as the sequence (P04818 2-313 limits assumed) above
# [16] = Induction of ROS accumulation in human cDDP-resistant C13 cells at IC50 concentration after 72 hrs […]; assay type: cell-based; conditions: c13, 72 h
# [17] = Inhibition of thymidylate synthase protein expression in human cDDP-resistant C13 cells after 72 hrs by Western blotting; assay type: functional, cell-based
# Thymidylate synthase [18] = target: T2, Thymidylate synthase; assay: Inhibition of thymidylate synthase catalytic activity in human cDDP-resistant C13 cells after 72 hrs by Western blotting (reference value: 12.9 +/- 0.6%); assay type: cell-based; conditions: concentration not given here
# Target sequence in this assay (P04818 2-313 limits assumed): as above
Compound,IC50 2008 [4] [µM],inhibition (Thymidylate synthase [5]) [%],IC50 [6] [µM],IC50 (Vero) [µM],IC50 (A2780 [7]) [µM],IC50 (A2780 [8]) [µM],other results
FC(F)(F)c1ccc(-c2nnc3c(C(F)(F)F)nc4ccccc4n23)cc1,,,,,,,inhibition [1]: 10%; inhibition (Thymidylate synthase [2]): 22%
Clc1ccc(Oc2nc3ccccc3n3c(-c4ccc(Cl)cc4)nnc23)cc1,,,,,,,inhibition [1]: inactive; inhibition (Thymidylate synthase [3]): 53%
Cc1cccc(-c2c3c(=O)n(C)c(=O)n(C)c3c3c(C(F)(F)F)nc4ccccc4n23)c1,49,< 5,55,100,,,
CN1CCN(c2nc3ccccc3n3c(-c4ccccc4)nnc23)CC1,48,,> 50,22,18,38,inhibition [1]: 40%; inhibition (Thymidylate synthase [2]): < 10%
COc1ccc(-c2nc3ccccc3n3cc4c(=O)n(C)c(=O)n(C)c4c23)cc1,,< 5,,,,,solubility [9]: Insoluble
Clc1nc2ccccc2n2c(-c3ccccc3)nnc12,12.5,28,13,18.2,2.5,6,Activity [10]: Non-toxic; Ki (Thymidylate synthase [11]): 10 µM
O=C(Nc1cc(C(F)(F)F)ccc1Cl)c1ccc2nccnc2c1,50,< 5,50,,,,
Cc1ccc(S(=O)(=O)N2CN(c3ccccc3)c3nc4ccccc4nc32)cc1,50,< 5,50,,,,
C=CCn1cnc2c(c1=O)c1nc3ccccc3nc1n2CCCC,,< 5,,,,,solubility [9]: Insoluble
COCCn1cnc2c(c1=O)c1nc3ccccc3nc1n2-c1ccc(Cl)c(Cl)c1,31,< 5,36,52,,,solubility [9]: Insoluble
COCCn1c(C)nc2c(c1=O)c1nc3ccccc3nc1n2-c1cc(C)cc(C)c1,,< 5,,,,,solubility [9]: Insoluble
Cc1ccc(-c2nc3ccccc3n3cc4c(=O)n(C)c(=O)n(C)c4c23)cc1,53,< 5,56,100,,,solubility [9]: Insoluble
FC(F)(F)c1nc2ccccc2n2c(-c3c(Cl)cccc3Cl)nnc12,37,,28,10,27.5,25,inhibition 2008 [12]: inactive; Activity 2008 [13]: Non-toxic; inhibition 2008 [14]: inactive; inhibition (C13): inactive; inhibition (Thymidylate synthase [15]): 58.9%; Activity [16]: Non-toxic; inhibition [17]: inactive; inhibition (Thymidylate synthase [18]): 32.3%
O=C(c1ccco1)N1N=C(c2ccc3nccnc3c2)CC1c1ccccc1 (configuration not stated),,< 5,,,,,inhibition (Thymidylate synthase [2]): inactive
N#Cc1c(N)n(CCc2ccccc2F)c2nc3ccccc3nc12,18,< 5,22,9.1,,,
Cc1ccc(S(=O)(=O)N(C)c2nc3ccccc3n3c(-c4ccccc4)nnc23)cc1,,70,,,,,inhibition [1]: inactive
FC(F)(F)c1nc2ccccc2n2c(-c3ccc(Cl)cc3)nnc12,2.5,< 5,3.4,1.2,2.3,4.7,
Cc1cc(Nc2nc3ccccc3n3cnnc23)ccc1Br,17,< 5,19,20,,,
O=C(Nc1cccc(Br)c1)c1ccc2nccnc2c1,50,< 5,50,,,,
O=C(CSc1nc2ccccc2nc1-c1ccccc1)N1CCCCCC1,,< 5,,,,,
COc1cc(Nc2nc3cc(C(F)(F)F)ccc3nc2C)cc(OC)c1OC,28.8,,14.2,40.2,27.5,35.3,
Fc1ccccc1-c1nnc2c(C(F)(F)F)nc3ccccc3n12,17.5,,27,14,9,11,inhibition [1]: 10%; inhibition (Thymidylate synthase [2]): 17%
COc1ccc(C(=O)c2nc3ccccc3nc2N2CCN(C)CC2)cc1,18.8,,8.3,42.4,17.4,27.4,
Cc1ccc(-c2nnc3c(C(F)(F)F)nc4ccccc4n23)cc1,42.5,,26.7,> 50,33,35.7,inhibition 2008 [12]: inactive; Activity 2008 [13]: Non-toxic; inhibition 2008 [14]: inactive; inhibition (C13): inactive; inhibition (Thymidylate synthase [15]): 38.8%; Activity [16]: Non-toxic; inhibition [17]: inactive; inhibition (Thymidylate synthase [18]): 12.9%
Cc1ccc(-c2nnc3c(N(C)C)nc4ccccc4n23)cc1,,,,,,,inhibition [1]: inactive; inhibition (Thymidylate synthase [2]): 41%

# Reference: ChEMBL document CHEMBL1275374, “Ligand-based virtual screening and ADME-tox guided approach to identify triazolo-quinoxalines as folate cycle inhibitors” (Bioorg Med Chem, 2010)
